Reference: US20210100826A1 (UNIVERSITY HOSPITAL CLEVELAND MEDICAL CENTER, priority 2017, published 2021)
Where “and” joins values, the source holds several entries; their conditions need not be identical. Equal entries are not always repeated.

What was measured:
[1] = UV radical generation activity; format: physicochemical
[2] = target: T1, cloned P2X7 ATP-activated channel (human P2RX7 gene expressed in HEK293 cells) (Homo sapiens, UniProt Q99572); test: Electrochemical patch clamp assay of P2X7 receptor activation (agonist mode, QPatch HT); format: cell-based; conditions: for Individual Data Points (% Activation): single cells; for decrease in EC50 when compared to BzBz-ATP / decrease in EC50 when compared to native ATP: ratio of EC50 values; for EC50: whole-cell patch clamp, holding voltage −80 mV, room temperature
T1 construct: HEK293 cells were stably transfected with the appropriate ion channel cDNA encoding the pore-forming channel subunit; expressed in transfected cells
T1 sequence (Q99572 1-595): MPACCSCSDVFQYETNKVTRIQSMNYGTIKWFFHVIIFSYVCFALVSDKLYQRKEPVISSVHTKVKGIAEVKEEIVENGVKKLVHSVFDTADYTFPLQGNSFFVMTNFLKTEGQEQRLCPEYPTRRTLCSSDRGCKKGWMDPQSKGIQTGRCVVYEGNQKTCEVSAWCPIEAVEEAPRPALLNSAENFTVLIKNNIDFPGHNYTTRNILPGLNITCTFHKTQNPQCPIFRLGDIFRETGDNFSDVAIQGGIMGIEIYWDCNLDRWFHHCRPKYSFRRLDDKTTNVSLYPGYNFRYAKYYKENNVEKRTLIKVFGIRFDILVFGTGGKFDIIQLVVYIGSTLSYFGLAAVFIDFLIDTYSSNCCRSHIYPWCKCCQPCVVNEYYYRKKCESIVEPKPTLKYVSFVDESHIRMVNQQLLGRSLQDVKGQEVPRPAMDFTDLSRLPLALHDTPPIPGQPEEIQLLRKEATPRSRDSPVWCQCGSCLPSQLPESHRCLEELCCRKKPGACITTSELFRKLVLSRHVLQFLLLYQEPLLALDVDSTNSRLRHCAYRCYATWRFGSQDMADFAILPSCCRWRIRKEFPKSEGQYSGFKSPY

[3] = test system: DMBA/TPA-induced skin papillomas and squamous spindle-cell carcinomas; test: Mouse two-step DMBA/TPA skin neoplasia model, local co-treatment with BzBzATP; format: in vivo
Description: Experiments were performed to test the hypothesis that activation of the P2X7 receptor could inhibit development of epidermal neoplasia. These experiments utilized the mouse two-step DMBA/TPA skin neoplasia model, which involves tumor initiation by local treatment with DMBA, followed by tumor promotion by local treatment with TPA. Agarwal et al, “Inhibitory effect of 18beta-glycyrrhetinic acid on 12-O-tetradecanoyl phorbol-13-acetate-induced cutaneous oxidative, stress and tumor promotion in mice” Redox Rep 10:151-157 (2005); and Guo et al, “Disruption of EphA2 receptor tyrosine kinase leads to increased susceptibility to carcinogenesis in mouse skin” Cancer Res 66:7050-7058 (2006). Mice had their dorsal skin shaved, and DMBA was applied once by topical application onto the shaved dorsal skin. TPA treatment by topical application onto the shaved dorsal skin was started one week later and continued twice a week for 12 weeks.
Animals were divided into three groups: Control mice (n=15) that had their back shaved and were treated only with the vehicle; DMBA/TPA-treated mice (n=15); and DMBA/TPA-treated mice that were co-treated with BzBzATP twice a week from week −2 (i.e. two weeks prior to DMBA) (n=14). All treatments were applied locally on the shaved dorsal skin. Papilloma development was monitored weekly from week 5 to 12 after the DMBA. Endpoints were percent animals with at least one papilloma; number of papilloma per animal; and mean papilloma size (e.g., millimeters of the largest lesion dimension). None of the animals in the control group had developed papillomas.
To evaluate the effects of BzBzATP, changes in skin lesions in the DMBA/TPA and DMBA/TPA+BzBzATP groups were compared relative to the length of treatment. Since formation of papillomas and cancerous lesions was time-related (i.e., for example, a marked cut-off occurs between weeks 13-14; see, FIG. 4A), data were analyzed separately for weeks 0-12 and weeks 14-28.

P2X7 = target: T2, P2X7 (Homo sapiens, UniProt Q99572); conditions: stated without test; read-out: EC50 as P2X7 agonist; cited from earlier work
T2 sequence (Q99572 1-595): T1 sequence (Q99572 1-595)

[4] = week 10, DMBA/TPA+BzBzATP group
[5] = week 12, DMBA/TPA+BzBzATP group
[6] = week 28, DMBA/TPA+BzBzATP group

Compound: Nc1ncnc2c1ncn2[C@@H]1O[C@H](COP(=O)(O)OP(=O)(O)OP(=O)(O)O)[C@@H](OC(=O)c2ccccc2)[C@H]1O [3′-O-(Benzoyl) Adenosine-5-Triphosphate, 3′-O-(benzoyl)-adenosine-5-triphosphate]
- UV radical generation activity [1]: low or no UV radical generation activity
- Mean % P2X7 Activation ([2]; Conc 1 μM): 8.3%
- Individual Data Points (% Activation) ([2]; Conc 1 μM): 15.8% and 9.7% and −0.7%
- Mean % P2X7 Activation ([2]; Conc 10 μM): 43.0%
- Individual Data Points (% Activation) ([2]; Conc 10 μM): 65.4% and 42.3% and 21.3%
- Mean % P2X7 Activation ([2]; Conc 100 μM): 94.5%
- Individual Data Points (% Activation) ([2]; Conc 100 μM): 102.5% and 82.3% and 98.7%
- Mean % P2X7 Activation ([2]; Conc 500 μM): 129.2%
- Individual Data Points (% Activation) ([2]; Conc 500 μM): 148.4% and 129.1% and 110.2%
- decrease in EC50 when compared to BzBz-ATP [2]: ~910%
- decrease in EC50 when compared to native ATP [2]: ~1511%
- EC50 [2]: 24 µM

Compound: 2′,3′-0-(4-benzoylbenzoyl)-adenosine 5′-triphosphate [BzBzATP, reference compound]
- UV radical generation activity [1]: high degree of UV radical generation activity
- TUNEL staining of papilloma tissue ([3]; biopsy at week 10, basal/parabasal regions): intense TUNEL staining
- decrease of the mean number of papillomas per animal ([3]; versus DMBA/TPA group): about 25%
- decrease of the mean papilloma size ([3]; versus DMBA/TPA group): about 45%
- proportion of living animals with cancerous lesions >200 mm^3 ([3]; versus DMBA/TPA group): differences did not reach statistical significance
- proportion of living animals having a papilloma ([3]; week 5, DMBA/TPA+BzBzATP group): 48±12%
- animals having at least one papilloma ([3]; week 6, DMBA/TPA+BzBzATP group): 53.8%
- papillomas per animal (mean±SEM) [3, 4]: 1.23±0.34
- papillomas per living animal (mean±SD) [3, 4]: 1.2±0.4
- mean papilloma size per animal (mean±SEM) [3, 5]: 3.46±0.73 mm
- mean total papillomas size per animal (mean±SD) [3, 5]: 3.4±1.0 mm
- animals that developed at least one skin papilloma ([3]; week 12, DMBA/TPA+BzBzATP group, local on dorsal skin twice a week): 78%
- proportion of living animals with cancerous lesions [3, 6]: 43±9%
- proportion of living animals with cancerous lesions >10 mm^3 [3, 6]: 16±4%
- EC50 (P2X7): ~50 µM
- P2X7 receptor activation efficacy, comparison in words [2]: slight improvement of receptor activation efficacy
- Mean % P2X7 Activation ([2]; Conc 1 μM): 0.0%
- Individual Data Points (% Activation) ([2]; Conc 1 μM): 0.1% and 0.0% and −0.2%
- Mean % P2X7 Activation ([2]; Conc 10 μM): 6.7%
- Individual Data Points (% Activation) ([2]; Conc 10 μM): 2.2% and 14.9% and 2.9%
- Mean % P2X7 Activation ([2]; Conc 100 μM): 16.9%
- Individual Data Points (% Activation) ([2]; Conc 100 μM): 7.2% and 29.6% and 13.8%
- Individual Data Points (% Activation) ([2]; Conc 200 μM): 34.8% and 41.8% and 39.4%
- Mean % P2X7 Activation ([2]; Conc 500 μM): 100.0%
- Individual Data Points (% Activation) ([2]; Conc 500 μM): 100.0%
- EC50 [2]: 218 µM

Compound: Nc1ncnc2c1ncn2[C@@H]1O[C@H](COP(=O)(O)OP(=O)(O)OP(=O)(O)O)[C@@H](OC(=O)c2cccc(Oc3ccccc3)c2)[C@H]1O [ATP-(3-phenoxy)benzoyl, 3-phenoxybenzoyl-ATP]
- Mean % P2X7 Activation ([2]; Conc 1 μM): 12.3%
- Individual Data Points (% Activation) ([2]; Conc 1 μM): 7.0% and 45.4% and 6.7% and −9.7%
- Mean % P2X7 Activation ([2]; Conc 10 μM): 74.7%
- Individual Data Points (% Activation) ([2]; Conc 10 μM): 36.6% and 167.5% and 39.7% and 54.9%
- Mean % P2X7 Activation ([2]; Conc 100 μM): 186.3%
- Individual Data Points (% Activation) ([2]; Conc 100 μM): 85.6% and 284.3% and 136.9% and 238.4%
- Mean % P2X7 Activation ([2]; Conc 500 μM): 320.8%
- Individual Data Points (% Activation) ([2]; Conc 500 μM): 346.4% and 357.0% and 209.5% and 370.2%
- decrease in EC50 when compared to BzBz-ATP [2]: ~445%
- decrease in EC50 when compared to native ATP [2]: ~738%
- EC50 [2]: 49.1 µM

Compound: Nc1ncnc2c1ncn2[C@@H]1O[C@H](COP(=O)(O)OP(=O)(O)OP(=O)(O)O)[C@@H](OC(=O)/C=C/c2ccccc2)[C@H]1O [cinnamoyl-ATP]
- UV radical generation activity [1]: low or no UV radical generation activity

Compound: CCCCCCCCCCCC(=O)O[C@H]1[C@@H](O)[C@H](n2cnc3c(N)ncnc32)O[C@@H]1COP(=O)(O)OP(=O)(O)OP(=O)(O)O [ATP-lauroyl, lauroyl-ATP]
- UV radical generation activity [1]: low or no UV radical generation activity
- dissolution in a solution with 0.3% DMSO: not totally dissolved
- Mean % P2X7 Activation ([2]; Conc 1 μM): 8.1%
- Individual Data Points (% Activation) ([2]; Conc 1 μM): −2.1% and 26.6% and −0.3%
- Mean % P2X7 Activation ([2]; Conc 10 μM): 29.9%
- Individual Data Points (% Activation) ([2]; Conc 10 μM): 45.1% and 18.1% and 26.4%
- Mean % P2X7 Activation ([2]; Conc 100 μM): 42.0%
- Individual Data Points (% Activation) ([2]; Conc 100 μM): 38.7% and 64.8% and 22.6%
- Mean % P2X7 Activation ([2]; Conc 500 μM): 96.9%
- Individual Data Points (% Activation) ([2]; Conc 500 μM): 98.3% and 124.6% and 67.7%
- decrease in EC50 when compared to BzBz-ATP [2]: ~350%
- decrease in EC50 when compared to native ATP [2]: ~580%
- EC50 [2]: 62.4 µM
- EC50 ([2]; listed as lauroyl-ATP): ~62 µM

Compound: Nc1ncnc2c1ncn2[C@@H]1O[C@H](COP(=O)(O)OP(=O)(O)OP(=O)(O)O)[C@@H](O)[C@H]1O [NaATP, adenosine triphosphate, reference compound]
- EC50 (P2X7): ~100 µM
- Mean % P2X7 Activation ([2]; Conc 300 μM): 40.9%
- Mean % P2X7 Activation ([2]; Conc 750 μM): 75.4%
- EC50 [2]: 363 µM
